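Abbreviation: GI50, concentration required for 50% inhibition of growth. TGI marks complete inhibition of growth.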
How the values were obtained:
Assay in all cases: growth of human tumour cells (NCI), 384-well format
[1] = test system: LOX IMVI melanoma
[2] = test system: UACC-62 melanoma
[3] = test system: RPMI-8226 leukemia
[4] = test system: A549 NSCLC
[5] = test system: SF-295 CNS
[6] = test system: NCI-H226 lung
[7] = test system: HOP-62 NSCLC
[8] = test system: HT29 colon
[9] = test system: K-562 leukemia
[10] = test system: CCRF-CEM leukemia
[11] = test system: MOLT-4 leukemia
[12] = test system: KM12 colon
[13] = test system: HOP-92 NSCLC
[14] = test system: M14 melanoma
[15] = test system: HCT-15 colon
[16] = test system: NCI-H460 NSCLC
[17] = test system: COLO 205 colon
[18] = test system: NCI-H522 lung
[19] = test system: SNB-19 CNS
[20] = test system: MCF7 breast
[21] = test system: SF-268 CNS
[22] = test system: NCI/ADR-RES ovarian
[23] = test system: SW-620 colon
[24] = test system: UO-31 renal
[25] = test system: SK-MEL-5 melanoma
[26] = test system: MDA-MB-231 breast
[27] = test system: HS 578T breast
[28] = test system: PC-3 prostate
[29] = test system: MDA-MB-468 breast
[30] = test system: SK-MEL-28 melanoma
[31] = test system: OVCAR-4 ovarian
[32] = test system: BT-549 breast
[33] = test system: MDA-MB-435 melanoma
[34] = test system: NCI-H23 lung
[35] = test system: CAKI-1 renal
[36] = test system: HL-60(TB) leukemia
[37] = test system: UACC-257 melanoma
[38] = test system: DU-145 prostate
[39] = test system: SR leukemia
[40] = test system: RXF 393 renal
[41] = test system: 786-0 renal
[42] = test system: OVCAR-3 ovarian
[43] = test system: IGROV1 ovarian
[44] = test system: SK-OV-3 ovarian
[45] = test system: SF-539 CNS
[46] = test system: A498 renal
[47] = test system: EKVX NSCLC
[48] = test system: T-47D breast
[49] = test system: SNB-75 CNS
[50] = test system: NCI-H322M lung
[51] = test system: SN12C renal
[52] = test system: TK-10 renal
[53] = test system: MALME-3M melanoma
[54] = test system: HCC-2998 colon
[55] = test system: ACHN renal
[56] = test system: OVCAR-8 ovarian
[57] = test system: OVCAR-5 ovarian

SMILES: Cc1cccc(N(C)C(=O)[C@@H]2[C@H](O)CCN2c2nc(C)cc(C(F)(F)F)c2C#N)c1
- GI50 [1]: 30.7 µM
- TGI [1]: 80.8 µM
- GI50 [2]: 38.1 µM
- TGI [2]: > 100 µM
- GI50 [3]: 13.6 µM
- TGI [3]: 26.7 µM
- GI50 [4]: 26.9 µM
- TGI [4]: > 100 µM
- GI50 [5]: 21.4 µM
- TGI [5]: 52 µM
- GI50 [6]: 21 µM
- TGI [6]: 64.8 µM
- GI50 [7]: 27.2 µM
- TGI [7]: 91.7 µM
- GI50 [8]: 32.7 µM
- TGI [8]: > 100 µM
- GI50 [9]: 33.1 µM
- TGI [9]: > 100 µM
- GI50 [10]: 19.4 µM
- TGI [10]: 36 µM
- GI50 [11]: 14.8 µM
- TGI [11]: 28.2 µM
- GI50 [12]: 33.3 µM
- TGI [12]: > 100 µM
- GI50 [13]: 22.9 µM
- TGI [13]: 61 µM
- GI50 [14]: 43.7 µM
- TGI [14]: > 100 µM
- GI50 [15]: 32 µM
- TGI [15]: > 100 µM
- GI50 [16]: 30.2 µM
- TGI [16]: 87 µM
- GI50 [17]: 37.9 µM
- TGI [17]: > 100 µM
- GI50 [18]: 28.1 µM
- TGI [18]: 70 µM
- GI50 [19]: 37.6 µM
- TGI [19]: > 100 µM
- GI50 [20]: 27.9 µM
- TGI [20]: 71.6 µM
- GI50 [21]: 38.9 µM
- TGI [21]: > 100 µM
- GI50 [22]: 23.5 µM
- TGI [22]: 63.8 µM
- GI50 [23]: 53.3 µM
- TGI [23]: > 100 µM
- GI50 [24]: 32.5 µM
- TGI [24]: > 100 µM
- GI50 [25]: 20.7 µM
- TGI [25]: 37.3 µM
- GI50 [26]: 47.9 µM
- TGI [26]: > 100 µM
- GI50 [27]: 21 µM
- TGI [27]: 52.3 µM
- GI50 [28]: 24.5 µM
- TGI [28]: 65.3 µM
- GI50 [29]: 20 µM
- TGI [29]: 38.5 µM
- GI50 [30]: 43.3 µM
- TGI [30]: > 100 µM
- GI50 [31]: 30.4 µM
- TGI [31]: 73 µM
- GI50 [32]: 29.4 µM
- TGI [32]: 65.4 µM
- GI50 [33]: 37.5 µM
- TGI [33]: > 100 µM
- GI50 [34]: 34.4 µM
- TGI [34]: > 100 µM
- GI50 [35]: 36.1 µM
- TGI [35]: > 100 µM
- GI50 [36]: 19.4 µM
- TGI [36]: 33.8 µM
- GI50 [37]: 35.3 µM
- TGI [37]: 76.6 µM
- GI50 [38]: 31.3 µM
- TGI [38]: 90.7 µM
- GI50 [39]: 15.9 µM
- TGI [39]: 30 µM
- GI50 [40]: 21.5 µM
- TGI [40]: 58.6 µM
- GI50 [41]: 33.3 µM
- TGI [41]: > 100 µM
- GI50 [42]: 20.1 µM
- TGI [42]: 43.5 µM
- GI50 [43]: 28 µM
- TGI [43]: 71.7 µM
- GI50 [44]: 35 µM
- TGI [44]: 96.4 µM
- GI50 [45]: 37.2 µM
- TGI [45]: > 100 µM
- GI50 [46]: 28.3 µM
- TGI [46]: 96.1 µM
- GI50 [47]: 24.4 µM
- TGI [47]: 58.1 µM
- GI50 [48]: 37 µM
- TGI [48]: > 100 µM
- GI50 [49]: 28.4 µM
- TGI [49]: 91.2 µM
- GI50 [50]: 36.4 µM
- TGI [50]: > 100 µM
- GI50 [51]: 30.6 µM
- TGI [51]: > 100 µM
- GI50 [52]: 51.4 µM
- TGI [52]: > 100 µM
- GI50 [53]: 22 µM
- TGI [53]: 66.7 µM
- GI50 [54]: 24.8 µM
- TGI [54]: 54.4 µM
- GI50 [55]: 31 µM
- TGI [55]: > 100 µM
- GI50 [56]: 32.9 µM
- TGI [56]: > 100 µM
- GI50 [57]: 35.2 µM
- TGI [57]: > 100 µM

Source: PubChem BioAssay (NCI)
